# Measurements published in the supplement of paper PMC11451515.
# Test system: P12-Ichikawa
# Test: cell viability relative to DMSO control; higher = less cytotoxic
# Details: 48 h
# Summary of the method: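 Cells were incubated for 48 h at 37°C before CellTiter-Glo One luminescence was read. The cells were NOMO1 or SEM (500 cells/well) or P12-Ichikawa (1000 cells/well) leukemia cells, adapted for at least four passages in each medium and seeded in 1536-well plates (5 μl). Dosing used library compounds in DMSO applied by pin over 11 threefold points, 47 μM to 0.79 nM. Viability is the per-plate percentage of DMSO wells, with cell-free wells as background.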
# [1] = HPLM + 10% dialyzed FBS, 0.000781 µM
# [2] = HPLM + 10% dialyzed FBS, 0.00234 µM
# [3] = HPLM + 10% dialyzed FBS, 0.00702 µM
# [4] = HPLM + 10% dialyzed FBS, 0.0211 µM
# [5] = HPLM + 10% dialyzed FBS, 0.0632 µM
# [6] = HPLM + 10% dialyzed FBS, 0.19 µM
# [7] = HPLM + 10% dialyzed FBS, 0.569 µM
# [8] = HPLM + 10% dialyzed FBS, 1.71 µM
# [9] = HPLM + 10% dialyzed FBS, 5.12 µM
# [10] = HPLM + 10% dialyzed FBS, 15.4 µM
# [11] = HPLM + 10% dialyzed FBS, 46.1 µM
# [12] = RPMI 5 mM glucose + 10% FBS, 0.000781 µM
# [13] = RPMI 5 mM glucose + 10% FBS, 0.00234 µM
# [14] = RPMI 5 mM glucose + 10% FBS, 0.00702 µM
# [15] = RPMI 5 mM glucose + 10% FBS, 0.0211 µM
# [16] = RPMI 5 mM glucose + 10% FBS, 0.0632 µM
# [17] = RPMI 5 mM glucose + 10% FBS, 0.19 µM
# [18] = RPMI 5 mM glucose + 10% FBS, 0.569 µM
# [19] = RPMI 5 mM glucose + 10% FBS, 1.71 µM
# [20] = RPMI 5 mM glucose + 10% FBS, 5.12 µM
# [21] = RPMI 5 mM glucose + 10% FBS, 15.4 µM
# [22] = RPMI 5 mM glucose + 10% FBS, 46.1 µM
# [23] = RPMI 5 mM glucose + 10% dialyzed FBS, 0.000781 µM
# [24] = RPMI 5 mM glucose + 10% dialyzed FBS, 0.00234 µM
# [25] = RPMI 5 mM glucose + 10% dialyzed FBS, 0.00702 µM
# [26] = RPMI 5 mM glucose + 10% dialyzed FBS, 0.0211 µM
# [27] = RPMI 5 mM glucose + 10% dialyzed FBS, 0.0632 µM
# [28] = RPMI 5 mM glucose + 10% dialyzed FBS, 0.19 µM
# [29] = RPMI 5 mM glucose + 10% dialyzed FBS, 0.569 µM
# [30] = RPMI 5 mM glucose + 10% dialyzed FBS, 1.71 µM
# [31] = RPMI 5 mM glucose + 10% dialyzed FBS, 5.12 µM
# [32] = RPMI 5 mM glucose + 10% dialyzed FBS, 15.4 µM
# [33] = RPMI 5 mM glucose + 10% dialyzed FBS, 46.1 µM
compound,measurement,setting,value
Oc1ccc(-c2ccc(-c3cc(Nc4cccc(CNC5CC5)c4)[nH]n3)cc2)c(O)c1,cell viability,[1],104%
same,cell viability,[2],103%
same,cell viability,[3],112%
same,cell viability,[4],104%
same,cell viability,[5],96.1%
same,cell viability,[6],112%
same,cell viability,[7],104%
same,cell viability,[8],92.3%
same,cell viability,[9],32.2%
same,cell viability,[10],38%
same,cell viability,[11],64.1%
same,cell viability,[12],99.4%
same,cell viability,[13],98.1%
same,cell viability,[14],115%
same,cell viability,[15],114%
same,cell viability,[16],98.5%
same,cell viability,[17],116%
same,cell viability,[18],108%
same,cell viability,[19],89%
same,cell viability,[20],23.2%
same,cell viability,[21],13.5%
same,cell viability,[22],23.4%
same,cell viability,[23],101%
same,cell viability,[24],114%
same,cell viability,[25],105%
same,cell viability,[26],125%
same,cell viability,[27],111%
same,cell viability,[28],112%
same,cell viability,[29],104%
same,cell viability,[30],101%
same,cell viability,[31],58.8%
same,cell viability,[32],32.9%
same,cell viability,[33],43.2%
CCOCC(O)COc1ccc(NC(=O)CC[S+](C)C)cc1 (configuration not stated),cell viability,[1],87.3%
same,cell viability,[2],82.5%
same,cell viability,[3],87.9%
same,cell viability,[4],96%
same,cell viability,[5],91.9%
same,cell viability,[6],88.1%
same,cell viability,[7],98.5%
same,cell viability,[8],98%
same,cell viability,[9],93.7%
same,cell viability,[10],99%
same,cell viability,[11],95%
same,cell viability,[12],88.2%
same,cell viability,[13],90.5%
same,cell viability,[14],93%
same,cell viability,[15],97.9%
same,cell viability,[16],91.3%
same,cell viability,[17],95.9%
same,cell viability,[18],95.9%
same,cell viability,[19],97.3%
same,cell viability,[20],94.4%
same,cell viability,[21],104%
same,cell viability,[22],92.3%
same,cell viability,[23],85.3%
same,cell viability,[24],74.7%
same,cell viability,[25],88.7%
same,cell viability,[26],88.8%
same,cell viability,[27],82.7%
same,cell viability,[28],91.3%
same,cell viability,[29],89.5%
same,cell viability,[30],84.6%
same,cell viability,[31],85.6%
same,cell viability,[32],88%
same,cell viability,[33],78.8%
C[N]1N=CC=C1C/2=C(\C)N(C(=O)C(=C2)/C(=O)NCC3=NC=C(C=C3)[S+](C)([O-])=O)C4=CC=CC(=C4)C(F)(F)F,cell viability,[1],107%
same,cell viability,[2],104%
same,cell viability,[3],106%
same,cell viability,[4],104%
same,cell viability,[5],107%
same,cell viability,[6],107%
same,cell viability,[7],105%
same,cell viability,[8],101%
same,cell viability,[9],98.3%
same,cell viability,[10],96.8%
same,cell viability,[11],88.5%
same,cell viability,[12],105%
same,cell viability,[13],102%
same,cell viability,[14],109%
same,cell viability,[15],109%
same,cell viability,[16],112%
same,cell viability,[17],93%
same,cell viability,[18],106%
same,cell viability,[19],97.3%
same,cell viability,[20],92%
same,cell viability,[21],91.1%
same,cell viability,[22],99.2%
same,cell viability,[23],108%
same,cell viability,[24],105%
same,cell viability,[25],112%
same,cell viability,[26],105%
same,cell viability,[27],106%
same,cell viability,[28],95%
same,cell viability,[29],110%
same,cell viability,[30],103%
same,cell viability,[31],102%
same,cell viability,[32],91.7%
same,cell viability,[33],97.5%
Cc1cnc(Nc2ccc(CN3CCOCC3)cc2)nc1Nc1cccc([S+](=O)([O-])NC(C)(C)C)c1,cell viability,[1],80%
same,cell viability,[2],81.1%
same,cell viability,[3],81.2%
same,cell viability,[4],82.7%
same,cell viability,[5],89.1%
same,cell viability,[6],80.3%
same,cell viability,[7],83.6%
same,cell viability,[8],77.3%
same,cell viability,[9],9.27%
same,cell viability,[10],3.06%
same,cell viability,[11],1.03%
same,cell viability,[12],81.2%
same,cell viability,[13],83.3%
same,cell viability,[14],83.8%
same,cell viability,[15],84.9%
same,cell viability,[16],87.7%
same,cell viability,[17],74.2%
same,cell viability,[18],67.9%
same,cell viability,[19],76.2%
same,cell viability,[20],22.9%
same,cell viability,[21],5.69%
same,cell viability,[22],3.76%
same,cell viability,[23],69.9%
same,cell viability,[24],84.2%
same,cell viability,[25],74.6%
same,cell viability,[26],81.3%
same,cell viability,[27],81%
same,cell viability,[28],72.6%
same,cell viability,[29],75%
same,cell viability,[30],71.6%
same,cell viability,[31],31.2%
same,cell viability,[32],6.47%
same,cell viability,[33],5.08%
CCN(CC)CCCC(C)Nc1nc(C)cc(Nc2ccc3nc(C)cc(N)c3c2)n1 (configuration not stated),cell viability,[1],101%
same,cell viability,[2],107%
same,cell viability,[3],109%
same,cell viability,[4],117%
same,cell viability,[5],122%
same,cell viability,[6],122%
same,cell viability,[7],126%
same,cell viability,[8],115%
same,cell viability,[9],130%
same,cell viability,[10],114%
same,cell viability,[11],118%
same,cell viability,[12],108%
same,cell viability,[13],109%
same,cell viability,[14],104%
same,cell viability,[15],121%
same,cell viability,[16],117%
same,cell viability,[17],126%
same,cell viability,[18],124%
same,cell viability,[19],112%
same,cell viability,[20],129%
same,cell viability,[21],107%
same,cell viability,[22],112%
same,cell viability,[23],107%
same,cell viability,[24],113%
same,cell viability,[25],111%
same,cell viability,[26],120%
same,cell viability,[27],117%
same,cell viability,[28],123%
same,cell viability,[29],126%
same,cell viability,[30],124%
same,cell viability,[31],126%
same,cell viability,[32],118%
same,cell viability,[33],101%
CN(C(Cc1ccc(O[S+](=O)([O-])c2cccc3cnccc23)cc1)C(=O)N1CCN(c2ccccc2)CC1)[S+](=O)([O-])c1cccc2cnccc12 (configuration not stated),cell viability,[1],102%
same,cell viability,[2],103%
same,cell viability,[3],106%
same,cell viability,[4],110%
same,cell viability,[5],114%
same,cell viability,[6],105%
same,cell viability,[7],114%
same,cell viability,[8],102%
same,cell viability,[9],93.1%
same,cell viability,[10],89.2%
same,cell viability,[11],70.5%
same,cell viability,[12],107%
same,cell viability,[13],110%
same,cell viability,[14],109%
same,cell viability,[15],106%
same,cell viability,[16],108%
same,cell viability,[17],103%
same,cell viability,[18],103%
same,cell viability,[19],97.7%
same,cell viability,[20],90.6%
same,cell viability,[21],71.8%
same,cell viability,[22],57.3%
same,cell viability,[23],104%
same,cell viability,[24],108%
same,cell viability,[25],105%
same,cell viability,[26],121%
same,cell viability,[27],109%
same,cell viability,[28],105%
same,cell viability,[29],113%
same,cell viability,[30],97.8%
same,cell viability,[31],102%
same,cell viability,[32],84.8%
same,cell viability,[33],58.7%
CCOC(=O)[C@@H](N)CCC(=O)N[C@@H](CSCc1ccccc1)C(=O)N[C@@H](C(=O)OCC)c1ccccc1,cell viability,[1],109%
same,cell viability,[2],124%
same,cell viability,[3],128%
same,cell viability,[4],126%
same,cell viability,[5],131%
same,cell viability,[6],131%
same,cell viability,[7],129%
same,cell viability,[8],132%
same,cell viability,[9],139%
same,cell viability,[10],140%
same,cell viability,[11],123%
O=C(NCc1ccccc1)c1csc(Nc2ccncn2)n1,cell viability,[1],91%
same,cell viability,[2],95.5%
same,cell viability,[3],100%
same,cell viability,[4],110%
same,cell viability,[5],105%
same,cell viability,[6],108%
same,cell viability,[7],103%
same,cell viability,[8],85.2%
same,cell viability,[9],62.9%
same,cell viability,[10],5.82%
same,cell viability,[11],1.69%
same,cell viability,[12],94%
same,cell viability,[13],96.1%
same,cell viability,[14],92.9%
same,cell viability,[15],104%
same,cell viability,[16],106%
same,cell viability,[17],94.5%
same,cell viability,[18],104%
same,cell viability,[19],63.7%
same,cell viability,[20],37.6%
same,cell viability,[21],5.79%
same,cell viability,[22],2.56%
same,cell viability,[23],93.4%
same,cell viability,[24],101%
same,cell viability,[25],104%
same,cell viability,[26],112%
same,cell viability,[27],106%
same,cell viability,[28],97.2%
same,cell viability,[29],102%
same,cell viability,[30],80.6%
same,cell viability,[31],36%
same,cell viability,[32],6.99%
same,cell viability,[33],2.78%
